Like-named read-outs stand apart in the source and are kept apart here.
Columns and labels:
[1] = test system: Aβ40 in conditioned medium of cells stably expressing Amyloid Precursor Protein (APP); experiment: In vitro BACE cell-based assay (Aβ40 sandwich ELISA); conditions: Homo sapiens, HEK293, average IC50; HEK cells; read-out: HEK cell assay IC50
Description: In Vitro BACE Cell-Based Assay
The cell-based assay measures inhibition or reduction of Aβ40 in conditioned medium of test compound treated cells expressing amyloid precursor protein.
Cells stably expressing Amyloid Precursor Protein (APP) were plated at a density of 40K cells/well in 96 well plates (Costar). The cells were cultivated for 24 hours at 37° C. and 5% CO2 in DMEM supplemented with 10% FBS. The test compounds were then added to cells in 10-point dose response concentrations with the starting concentration being either 100 μM or 10 μM. The compounds were diluted from stock solutions in DMSO and the final DMSO concentration of the test compounds on cells was 0.1%. After 24 h of incubation with the test compounds the supernatant conditioned media was collected and the Aβ 40 levels were determined using a sandwich ELISA. The IC50 of the compound was calculated from the percent of control or percent inhibition of Aβ 40 as a function of the concentration of the test compound.
The sandwich ELISA to detect Aβ 40 was performed in 96 well microtiter plates, which were pre-treated with goat anti-rabbit IgG (Pierce). The capture and detecting antibody pair that were used to detect Aβ 40 from cell supernatants were affinity purified pAb40 (Biosource) and biotinylated 6E10 (Signet Labs Inc.), respectively. The optimal concentration for the pAb40 antibody was 3 μg/ml in Superblock/TBS (Pierce) that was supplemented with 0.05% Tween 20 (Sigma).
Cellular supernatants were incubated with the capture antibody for 3 h at 4° C., followed by 3 wash steps in TBS-tween (0.05%). The detecting antibody incubation was for 2 h at 4° C., again followed by the wash steps as described previously. The final readout of the ELISA is Time-Resolved Fluorescence (counts per minute) using Delfia reagents Streptavidin-Europium and Enhancement solutions (Perkin Elmer) and the Victor 2 multilabel counter (Perkin Elmer).

Cathepsin D (Cat D) = Cathepsin D (Cat D) (Homo sapiens (Human), UniProt P07339); experiment: In vitro enzymatic Cathepsin D (Cat D) FRET assay; assay type: biochemical; conditions: read-out: CatD IC50
Description: In Vitro Enzymatic Cathepsin D (Cat D) FRET (Fluorescence Resonance Energy Transfer) Assay
Recombinant Cat D was expressed in CHO cells. The assay buffer for CathepsinD is 0.05 M citrate pH 3.5, 10% DMSO final, 5 mM CHAPS. […] The assays are effectively started by the addition of different FRET substrates (20 nM for Cat D) and the combination is incubated for one hour. The FRET assay is terminated with by addition of Tris buffer, which raises the pH to neutrality, and the fluorescence is determined. The FRET substrate is a peptide with commercially available fluorophore and quencher, on opposite sides of the BACE cleavage site. […] Proteolytic cleavage of the FRET substrate releases quenching of fluorescence (Cat D excitation 500 nm and emission 580 nm).
In addition, the cathepsin D and cathepsin E assays are described in PCT publication WO2011069934.

[2] = average IC50, cathepsin D enzyme assay

Chain of Cathepsin D (Cat D) (P07339 65-412, species assumed): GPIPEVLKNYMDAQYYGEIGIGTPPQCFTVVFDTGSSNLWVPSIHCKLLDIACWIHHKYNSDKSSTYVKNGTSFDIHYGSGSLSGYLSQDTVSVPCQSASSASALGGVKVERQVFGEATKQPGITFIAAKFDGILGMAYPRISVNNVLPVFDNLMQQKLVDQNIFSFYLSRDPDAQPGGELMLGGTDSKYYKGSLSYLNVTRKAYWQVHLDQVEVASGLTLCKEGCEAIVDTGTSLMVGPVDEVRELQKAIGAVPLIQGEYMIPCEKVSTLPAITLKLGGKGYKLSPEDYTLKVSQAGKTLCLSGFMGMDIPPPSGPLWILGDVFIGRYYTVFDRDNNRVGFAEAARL

SMILES	IC50 (Cathepsin D (Cat D); average)	also measured
N#Cc1cnc2c(Nc3ccc(F)c([C@]4(CF)C[C@@H](C(F)(F)F)OC(N)=N4)c3)ncnc2c1 [Example 23, 4-((3-((4S,6S)-2-amino-4-(fluoromethyl)-6-(trifluoromethyl)-5,6-dihydro-4H-1,3-oxazin-4-yl)-4-fluorophenyl)amino)pyrido[3,2-d]pyrimidine-7-carbonitrile]	–	IC50 [1]: 192 nM
CC#CCOc1ccc(C(=O)Nc2cc(F)c(F)c([C@]3(CF)C[C@@H](C(F)(F)F)OC(N)=N3)c2)nc1 [Example 160, N-(3-((4S,6S)-2-amino-4-(fluoromethyl)-6-(trifluoromethyl)-5,6-dihydro-4H-1,3-oxazin-4-yl)-4,5-difluorophenyl)-5-(but-2-yn-1-yloxy)picolinamide]	–	IC50 (Cathepsin D (Cat D); [2]): > 400 µM
N#Cc1cnc2c(Nc3cc(F)c(F)c([C@]4(CF)C[C@@H](C(F)(F)F)OC(N)=N4)c3)nccc2c1 [Example 162, 8-((3-((4S,6S)-2-amino-4-(fluoromethyl)-6-(trifluoromethyl)-5,6-dihydro-4H-1,3-oxazin-4-yl)-4,5-difluorophenyl)amino)-1,7-naphthyridine-3-carbonitrile]	–	IC50 (Cathepsin D (Cat D); [2]): > 400 µM
COc1cnc2c(Nc3cc(F)c(F)c([C@]4(C)C[C@@H](C(F)(F)F)OC(N)=N4)c3)nccc2n1 [Example 178, (4S,6S)-4-(2,3-difluoro-5-((2-methoxypyrido[3,4-b]pyrazin-5-yl)amino)phenyl)-4-methyl-6-(trifluoromethyl)-5,6-dihydro-4H-1,3-oxazin-2-amine]	–	IC50 (Cathepsin D (Cat D); [2]): 519 µM
COc1cnc2c(Nc3cc(F)c(F)c([C@]4(C)C[C@@H](C(F)(F)F)OC(N)=N4)c3)nccc2c1 [Example 179]	–	IC50 (Cathepsin D (Cat D); [2]): > 400 µM
C[C@@]1(c2cc(NC(=O)c3ccc(Cl)cn3)cc(Cl)c2F)C[C@@H](C(F)(F)F)OC(N)=N1 [Example 207, N-(3-((4S,6S)-2-amino-4-methyl-6-(trifluoromethyl)-5,6-dihydro-4H-1,3-oxazin-4-yl)-5-chloro-4-fluorophenyl)-5-chloropicolinamide]	386 µM	–
Cc1cc(C(F)F)cnc1C(=O)Nc1cc(C)c(F)c([C@]2(CF)C[C@@H](C(F)(F)F)OC(N)=N2)c1 [Example 216, N-(3-((4S,6S)-2-amino-4-(fluoromethyl)-6-(trifluoromethyl)-5,6-dihydro-4H-1,3-oxazin-4-yl)-4-fluoro-5-methylphenyl)-5-(difluoromethyl)-3-methylpicolinamide]	> 400 µM	–
Cc1cc(NC(=O)c2ccc(C(F)F)cn2)cc([C@]2(CF)C[C@@H](C(F)(F)F)OC(N)=N2)c1F [Example 221, N-(3-((4S,6S)-2-amino-4-(fluoromethyl)-6-(trifluoromethyl)-5,6-dihydro-4H-1,3-oxazin-4-yl)-4-fluoro-5-methylphenyl)-5-(difluoromethyl)picolinamide]	992 µM	–
Cc1cc(NC(=O)c2ccc(F)cn2)cc([C@]2(CF)C[C@@H](C(F)(F)F)OC(N)=N2)c1F [Example 223, N-(3-((4S,6S)-2-amino-4-(fluoromethyl)-6-(trifluoromethyl)-5,6-dihydro-4H-1,3-oxazin-4-yl)-4-fluoro-5-methylphenyl)-5-fluoropicolinamide]	833 µM	–
COc1ccc(C(=O)Nc2cc(C)c(F)c([C@]3(CF)C[C@@H](C(F)(F)F)OC(N)=N3)c2)nc1 [Example 229, N-(3-((4S,6S)-2-amino-4-(fluoromethyl)-6-(trifluoromethyl)-5,6-dihydro-4H-1,3-oxazin-4-yl)-4-fluoro-5-methylphenyl)-5-methoxypicolinamide]	1120 µM	–
NC1=N[C@](CF)(c2cc(NC(=O)c3ncc(Cl)cc3F)cc(F)c2F)C[C@@H](C(F)(F)F)O1 [Example 233, N-(3-((4S,6S)-2-amino-4-(fluoromethyl)-6-(trifluoromethyl)-5,6-dihydro-4H-1,3-oxazin-4-yl)-4,5-difluorophenyl)-5-chloro-3-fluoropicolinamide]	> 400 µM	–
C[C@@]1(c2cc(NC(=O)c3ccc(Cl)cn3)cc(F)c2Cl)C[C@@H](C(F)(F)F)OC(N)=N1 [Example 236, N-(3-((4S,6S)-2-amino-4-methyl-6-(trifluoromethyl)-5,6-dihydro-4H-1,3-oxazin-4-yl)-4-chloro-5-fluorophenyl)-5-chloropicolinamide]	408 µM	–
COc1cnc(C(=O)Nc2cc(F)c(Cl)c([C@]3(C)C[C@@H](C(F)(F)F)OC(N)=N3)c2)cn1 [Example 237, N-(3-((4S,6S)-2-amino-4-methyl-6-(trifluoromethyl)-5,6-dihydro-4H-1,3-oxazin-4-yl)-4-chloro-5-fluorophenyl)-5-methoxypyrazine-2-carboxamide]	194 µM	–

The next lines start with results.

IC50 (Cathepsin D (Cat D); average)	SMILES	also measured
> 400 µM	Cc1cc(OC(F)F)cnc1C(=O)Nc1cc(F)c(F)c([C@]2(C)C[C@@H](C(F)(F)F)OC(N)=N2)c1 [Example 174, N-(3-((4S,6S)-2-amino-4-methyl-6-(trifluoromethyl)-5,6-dihydro-4H-1,3-oxazin-4-yl)-4,5-difluorophenyl)-5-(difluoromethoxy)-3-methylpicolinamide]	–
286 µM	CC#CCOc1cnc(C(=O)Nc2cc(F)c(F)c([C@]3(C)C[C@@H](C(F)(F)F)OC(N)=N3)c2)c(C)c1 [Example 188, N-(3-((4S,6S)-2-amino-4-methyl-6-(trifluoromethyl)-5,6-dihydro-4H-1,3-oxazin-4-yl)-4,5-difluorophenyl)-5-(but-2-yn-1-yloxy)-3-methylpicolinamide]	–
> 400 µM	Cc1cc(OCC(F)(F)F)cnc1C(=O)Nc1cc(F)c(F)c([C@]2(C)C[C@@H](C(F)(F)F)OC(N)=N2)c1 [Example 194, N-(3-((4S,6S)-2-amino-4-methyl-6-(trifluoromethyl)-5,6-dihydro-4H-1,3-oxazin-4-yl)-4,5-difluorophenyl)-3-methyl-5-(2,2,2-trifluoroethoxy)picolinamide]	–
> 400 µM	Cc1nc(OCC(F)(F)F)cnc1C(=O)Nc1cc(F)c(F)c([C@]2(C)C[C@@H](C(F)(F)F)OC(N)=N2)c1 [Example 197, N-(3-((4S,6S)-2-amino-4-methyl-6-(trifluoromethyl)-5,6-dihydro-4H-1,3-oxazin-4-yl)-4,5-difluorophenyl)-3-methyl-5-(2,2,2-trifluoroethoxy)pyrazine-2-carboxamide]	–
> 400 µM	C[C@@]1(c2cc(NC(=O)c3ncc(C(F)F)cc3Cl)cc(F)c2F)C[C@@H](C(F)(F)F)OC(N)=N1 [Example 198, N-(3-((4S,6S)-2-amino-4-methyl-6-(trifluoromethyl)-5,6-dihydro-4H-1,3-oxazin-4-yl)-4,5-difluorophenyl)-3-chloro-5-(difluoromethyl)picolinamide]	–
997 µM	C[C@@]1(c2cc(NC(=O)c3ccc(C(F)F)cn3)cc(F)c2F)C[C@@H](C(F)(F)F)OC(N)=N1 [Example 200, N-(3-((4S,6S)-2-amino-4-methyl-6-(trifluoromethyl)-5,6-dihydro-4H-1,3-oxazin-4-yl)-4,5-difluorophenyl)-5-(difluoromethyl)picolinamide]	–
1140 µM	COc1cnc(C(=O)Nc2cc(F)c(F)c([C@]3(C)C[C@@H](C(F)(F)F)OC(N)=N3)c2)c(C)c1 [Example 202, N-(3-((4S,6S)-2-amino-4-methyl-6-(trifluoromethyl)-5,6-dihydro-4H-1,3-oxazin-4-yl)-4,5-difluorophenyl)-5-methoxy-3-methylpicolinamide]	–
416 µM	Cc1cc(C#N)cnc1C(=O)Nc1cc(Cl)c(F)c([C@]2(C)C[C@@H](C(F)(F)F)OC(N)=N2)c1 [Example 210, N-(3-((4S,6S)-2-amino-4-methyl-6-(trifluoromethyl)-5,6-dihydro-4H-1,3-oxazin-4-yl)-5-chloro-4-fluorophenyl)-5-cyano-3-methylpicolinamide]	–
> 400 µM	COc1cnc(C(=O)Nc2cc(Cl)c(F)c([C@]3(C)C[C@@H](C(F)(F)F)OC(N)=N3)c2)c(C)n1 [Example 215, N-(3-((4S,6S)-2-amino-4-methyl-6-(trifluoromethyl)-5,6-dihydro-4H-1,3-oxazin-4-yl)-5-chloro-4-fluorophenyl)-5-methoxy-3-methylpyrazine-2-carboxamide]	–

Reference: US9296734B2 (AMGEN INC., priority 2013, dated 2016)
